Reference: patent US11912686B2 (Gilead Sciences, Inc., priority 2020, dated 2024)

Molecular target: human LPAR1 (Homo sapiens (Human), UniProt Q92633)
Assay: LPAR1 intracellular calcium mobilization assay (antagonist mode, FLIPR)
Assay type: cell-based
Conditions: CHO-K1 EDG2 cells expressing human LPAR1, LPA 18:2 at EC80 (100 nM), test compound 0.5 nM to 10 μM

Sequence of human LPAR1 (Q92633 whole entry): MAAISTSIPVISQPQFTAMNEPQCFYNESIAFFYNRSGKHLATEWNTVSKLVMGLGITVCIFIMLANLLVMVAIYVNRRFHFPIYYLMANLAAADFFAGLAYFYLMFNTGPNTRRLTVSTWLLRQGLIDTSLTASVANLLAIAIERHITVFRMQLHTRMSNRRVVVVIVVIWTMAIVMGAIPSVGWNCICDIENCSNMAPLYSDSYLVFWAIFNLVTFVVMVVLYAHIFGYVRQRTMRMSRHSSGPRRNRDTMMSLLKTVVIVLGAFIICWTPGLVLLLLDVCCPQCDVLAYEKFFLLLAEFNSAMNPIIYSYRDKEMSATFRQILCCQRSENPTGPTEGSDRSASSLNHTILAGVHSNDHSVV

**Q.** For `C[C@@H](OC(=O)Nc1c(-c2ccc(NC(=O)[C@@H]3C[C@H]3c3ccccn3)cn2)nnn1C)c1cc(F)cnc1F` [Compound 265, (R)-1-(2,5-difluoropyridin-3-yl)ethyl (1-methyl-4-(5-((1R,2R)-2-(pyridin-2-yl)cyclopropane-1-carboxamido)pyridin-2-yl)-1H-1,2,3-triazol-5-yl)carbamate], which EC50 is on record?
**A.** Its EC50 is 19.5 nM.

**Q.** For `C[C@@H](OC(=O)Nc1c(-c2ccc(NC(=O)[C@H]3C[C@@H]3c3ccccn3)cn2)nnn1C)c1cc(F)cnc1F` [Compound 266, (R)-1-(2,5-difluoropyridin-3-yl)ethyl (1-methyl-4-(5-((1S,2S)-2-(pyridin-2-yl)cyclopropane-1-carboxamido)pyridin-2-yl)-1H-1,2,3-triazol-5-yl)carbamate], which EC50 is on record?
**A.** Its EC50 is 749 nM.

**Q.** How did the EC50 turn out when `C[C@@H](OC(=O)Nc1c(-c2ccc(NC(=O)[C@@H]3C[C@H]3C3CC3)cn2)nnn1C)c1cc(F)cnc1F` [Compound 267, (R)-1-(2,5-difluoropyridin-3-yl)ethyl (4-(5-((1S,2R)[1,1′-bi(cyclopropane)]-2-carboxamido)pyridin-2-yl)-1-methyl-1H-1,2,3-triazol-5-yl)carbamate] was run?
**A.** The EC50 was 588 nM.

**Q.** How did the EC50 turn out when `C[C@@H](OC(=O)Nc1c(-c2ccc(NC(=O)[C@H]3C[C@@H]3C3CC3)cn2)nnn1C)c1cc(F)cnc1F` [Compound 268, (R)-1-(2,5-difluoropyridin-3-yl)ethyl (4-(5-((1R,2S)-[1,1′-bi(cyclopropane)]-2-carboxamido)pyridin-2-yl)-1-methyl-1H-1,2,3-triazol-5-yl)carbamate] was run?
**A.** The EC50 was 7.3 nM.

**Q.** How did the EC50 turn out when `C[C@@H](OC(=O)Nc1c(-c2ccc(NC(=O)[C@]3(C#N)C[C@H]3F)cn2)nnn1C)c1cc(F)cnc1F` [Compound 269, (R)-1-(2,5-difluoropyridin-3-yl)ethyl (4-(5-((1R,2R)-1-cyano-2-fluorocyclopropane-1-carboxamido)pyridin-2-yl)-1-methyl-1H-1,2,3-triazol-5-yl)carbamate] was run?
**A.** The EC50 was 127 nM.

**Q.** `C[C@@H](OC(=O)Nc1c(-c2ccc(NC(=O)[C@@]3(C#N)C[C@@H]3F)cn2)nnn1C)c1cc(F)cnc1F` [Compound 270, (R)-1-(2,5-difluoropyridin-3-yl)ethyl (4-(5-((1S,2S)-1-cyano-2-fluorocyclopropane-1-carboxamido)pyridin-2-yl)-1-methyl-1H-1,2,3-triazol-5-yl)carbamate] was tested. Which EC50 did it give?
**A.** Its EC50 is 168 nM.

**Q.** For `C[C@@H](OC(=O)Nc1c(-c2ccc(NC(=O)c3ccc(C4(C#N)CC4)nc3)cn2)nnn1C)c1cc(F)cnc1F` [Compound 271, (R)-1-(2,5-difluoropyridin-3-yl)ethyl (4-(5-(6-(1-cyanocyclopropyl)nicotinamido)pyridin-2-yl)-1-methyl-1H-1,2,3-triazol-5-yl)carbamate], which EC50 is on record?
**A.** Its EC50 is 229 nM.

**Q.** With `C[C@@H](OC(=O)Nc1c(-c2ccc(NC(=O)c3ccc(C(C)(F)F)nc3)cn2)nnn1C)c1cc(F)cnc1F` [Compound 272, (R)-1-(2,5-difluoropyridin-3-yl)ethyl (4-(5-(6-(1,1-difluoroethyl)nicotinamido)pyridin-2-yl)-1-methyl-1H-1,2,3-triazol-5-yl)carbamate] as the compound, how does the EC50 read?
**A.** The EC50 was 162 nM.

**Q.** `C[C@@H](OC(=O)Nc1c(-c2ccc(NC(=O)c3ccnc(S(C)(=O)=O)c3)cn2)nnn1C)c1cc(F)cnc1F` [Compound 273, (R)-1-(2,5-difluoropyridin-3-yl)ethyl (1-methyl-4-(5-(2-(methylsulfonyl)isonicotinamido)pyridin-2-yl)-1H-1,2,3-triazol-5-yl)carbamate] was tested. Which EC50 did it give?
**A.** Its EC50 is 248 nM.

**Q.** Which EC50 does the source give for `C[C@@H](OC(=O)Nc1c(-c2ccc(NC(=O)c3ccc4ncn(C)c4c3)cn2)nnn1C)c1cc(F)cnc1F` [Compound 274, (R)-1-(2,5-difluoropyridin-3-yl)ethyl (1-methyl-4-(5-(1-methyl-1H-benzo[d]imidazole-6-carboxamido)pyridin-2-yl)-1H-1,2,3-triazol-5-yl)carbamate] here?
**A.** Its EC50 is 403 nM.

**Q.** `C[C@@H](OC(=O)Nc1c(-c2ccc(NC(=O)c3cc(C(F)(F)F)cnc3F)cn2)nnn1C)c1cc(F)cnc1F` [Compound 275, (R)-1-(2,5-difluoropyridin-3-yl)ethyl (4-(5-(2-fluoro-5-(trifluoromethyl)nicotinamido)pyridin-2-yl)-1-methyl-1H-1,2,3-triazol-5-yl)carbamate] was tested. Which EC50 did it give?
**A.** Its EC50 is 241 nM.

**Q.** With `Cc1noc(C(=O)Nc2ccc(-c3nnn(C)c3NC(=O)O[C@H](C)c3cc(F)cnc3F)nc2)c1C` [Compound 276, (R)-1-(2,5-difluoropyridin-3-yl)ethyl (4-(5-(3,4-dimethylisoxazole-5-carboxamido)pyridin-2-yl)-1-methyl-1H-1,2,3-triazol-5-yl)carbamate] as the compound, how does the EC50 read?
**A.** The EC50 was 140 nM.

**Q.** How did the EC50 turn out when `Cc1nc2cc(C(=O)Nc3ccc(-c4nnn(C)c4NC(=O)O[C@H](C)c4cc(F)cnc4F)nc3)cnc2[nH]1` [Compound 277, (R)-1-(2,5-difluoropyridin-3-yl)ethyl (1-methyl-4-(5-(2-methyl-3H-imidazo[4,5-b]pyridine-6-carboxamido)pyridin-2-yl)-1H-1,2,3-triazol-5-yl)carbamate] was run?
**A.** Its EC50 is 955 nM.

**Q.** With `C[C@@H](OC(=O)Nc1c(-c2ccc(NC(=O)c3cnc4cnn(C)c4c3)cn2)nnn1C)c1cc(F)cnc1F` [Compound 278, (R)-1-(2,5-difluoropyridin-3-yl)ethyl (1-methyl-4-(5-(1-methyl-1H-pyrazolo[4,3-b]pyridine-6-carboxamido)pyridin-2-yl)-1H-1,2,3-triazol-5-yl)carbamate] as the compound, how does the EC50 read?
**A.** The EC50 was 810 nM.

**Q.** How did the EC50 turn out when `Cc1noc2cc(C(=O)Nc3ccc(-c4nnn(C)c4NC(=O)O[C@H](C)c4cc(F)cnc4F)nc3)ccc12` [Compound 279, (R)-1-(2,5-difluoropyridin-3-yl)ethyl (1-methyl-4-(5-(3-methylbenzo[d]isoxazole-6-carboxamido)pyridin-2-yl)-1H-1,2,3-triazol-5-yl)carbamate] was run?
**A.** Its EC50 is 97.4 nM.

**Q.** How did the EC50 turn out when `C[C@@H](OC(=O)Nc1c(-c2ccc(NC(=O)c3cnc(C4CC4)o3)cn2)nnn1C)c1cc(F)cnc1F` [Compound 280, (R)-1-(2,5-difluoropyridin-3-yl)ethyl (4-(5-(2-cyclopropyloxazole-5-carboxamido)pyridin-2-yl)-1-methyl-1H-1,2,3-triazol-5-yl)carbamate] was run?
**A.** The EC50 was 98.7 nM.

**Q.** `COc1cc(C(=O)Nc2ccc(-c3nnn(C)c3NC(=O)O[C@H](C)c3cc(F)cnc3F)nc2)on1` [Compound 281, (R)-1-(2,5-difluoropyridin-3-yl)ethyl (4-(5-(3-methoxyisoxazole-5-carboxamido)pyridin-2-yl)-1-methyl-1H-1,2,3-triazol-5-yl)carbamate] was tested. Which EC50 did it give?
**A.** Its EC50 is 86.6 nM.

**Q.** With `C[C@@H](OC(=O)Nc1c(-c2ccc(NC(=O)c3cnc(N(C)C)nc3)cn2)nnn1C)c1cc(F)cnc1F` [Compound 282, (R)-1-(2,5-difluoropyridin-3-yl)ethyl (4-(5-(2-(dimethylamino)pyrimidine-5-carboxamido)pyridin-2-yl)-1-methyl-1H-1,2,3-triazol-5-yl)carbamate] as the compound, how does the EC50 read?
**A.** Its EC50 is 1190 nM.

**Q.** With `C[C@@H](OC(=O)Nc1c(-c2ccc(NC(=O)c3cnc(C4CC4)nc3)cn2)nnn1C)c1cc(F)cnc1F` [Compound 283, (R)-1-(2,5-difluoropyridin-3-yl)ethyl (4-(5-(2-cyclopropylpyrimidine-5-carboxamido)pyridin-2-yl)-1-methyl-1H-1,2,3-triazol-5-yl)carbamate] as the compound, how does the EC50 read?
**A.** The EC50 was 82.4 nM.

**Q.** How did the EC50 turn out when `C[C@@H](OC(=O)Nc1c(-c2ccc(NC(=O)c3cnc(N4CCOCC4)nc3)cn2)nnn1C)c1cc(F)cnc1F` [Compound 284, (R)-1-(2,5-difluoropyridin-3-yl)ethyl (1-methyl-4-(5-(2-morpholinopyrimidine-5-carboxamido)pyridin-2-yl)-1H-1,2,3-triazol-5-yl)carbamate] was run?
**A.** The EC50 was 908 nM.

**Q.** With `C[C@@H](OC(=O)Nc1c(-c2ncc(NC(=O)[C@]3(C#N)C[C@H]3C(F)F)cn2)nnn1C)c1cc(F)cnc1Cl` [Compound 286, (R)-1-(2-chloro-5-fluoropyridin-3-yl)ethyl (4-(5-((1R,2R)-1-cyano-2-(difluoromethyl)cyclopropane-1-carboxamido)pyrimidin-2-yl)-1-methyl-1H-1,2,3-triazol-5-yl)carbamate] as the compound, how does the EC50 read?
**A.** Its EC50 is 104 nM.

**Q.** `C[C@@H](OC(=O)Nc1c(-c2ncc(NC(=O)[C@@]3(C#N)C[C@@H]3C(F)F)cn2)nnn1C)c1cc(F)cnc1Cl` [Compound 287, (R)-1-(2-chloro-5-fluoropyridin-3-yl)ethyl (4-(5-((1S,2S)-1-cyano-2-(difluoromethyl)cyclopropane-1-carboxamido)pyrimidin-2-yl)-1-methyl-1H-1,2,3-triazol-5-yl)carbamate] was tested. Which EC50 did it give?
**A.** The EC50 was 1430 nM.

**Q.** With `C[C@@H](OC(=O)Nc1c(-c2ccc(NC(=O)c3ccc(C(F)(F)F)nc3)cn2)nnn1C)c1cc(F)cnc1Cl` [Compound 288, (R)-1-(2-chloro-5-fluoropyridin-3-yl)ethyl (1-methyl-4-(5-(6-(trifluoromethyl)nicotinamido)pyridin-2-yl)-1H-1,2,3-triazol-5-yl)carbamate] as the compound, how does the EC50 read?
**A.** Its EC50 is 33.5 nM.

**Q.** How did the EC50 turn out when `C[C@@H](OC(=O)Nc1c(-c2ccc(NC(=O)c3cnc(C(F)F)nc3)cn2)nnn1C)c1cc(F)cnc1Cl` [Compound 289, (R)-1-(2-chloro-5-fluoropyridin-3-yl)ethyl (4-(5-(2-(difluoromethyl)pyrimidine-5-carboxamido)pyridin-2-yl)-1-methyl-1H-1,2,3-triazol-5-yl)carbamate] was run?
**A.** The EC50 was 21.5 nM.

**Q.** How did the EC50 turn out when `C[C@@H](OC(=O)Nc1c(-c2ccc(NC(=O)c3cnc(C(F)(F)F)nc3)cn2)nnn1C)c1cc(F)cnc1Cl` [Compound 290, (R)-1-(2-chloro-5-fluoropyridin-3-yl)ethyl (1-methyl-4-(5-(2-(trifluoromethyl)pyrimidine-5-carboxamido)pyridin-2-yl)-1H-1,2,3-triazol-5-yl)carbamate] was run?
**A.** Its EC50 is 10.9 nM.

**Q.** Which EC50 does the source give for `C[C@@H](OC(=O)Nc1c(-c2ccc(NC(=O)C3(C)CC(F)(F)C3)cn2)nnn1C)c1cccnc1F` [Compound 291, (R)-1-(2-fluoropyridin-3-yl)ethyl (4-(5-(3,3-difluoro-1-methylcyclobutane-1-carboxamido)pyridin-2-yl)-1-methyl-1H-1,2,3-triazol-5-yl)carbamate] here?
**A.** The EC50 was 157 nM.

**Q.** For `C[C@@H](OC(=O)Nc1c(-c2ccc(NC(=O)c3ccc(Cl)nc3)cn2)nnn1C)c1cccnc1F` [Compound 292, (R)-1-(2-fluoropyridin-3-yl)ethyl (4-(5-(6-chloronicotinamido)pyridin-2-yl)-1-methyl-1H-1,2,3-triazol-5-yl)carbamate], which EC50 is on record?
**A.** The EC50 was 143 nM.
